According to patent publication US7713979B2, “Cycloalkyl lactam derivatives as inhibitors of 11-beta-hydroxysteroid dehydrogenase 1” (Eli Lilly and Company, priority 2004, dated 2010):

Target: recombinant human 11β-HSD type 1 enzyme (Homo sapiens, UniProt P28845)
Assay: 11β-HSD type 1 enzyme assay (NADPH fluorescence)
Format: biochemical
Details: three hour incubation at room temperature
Protocol: 11β-HSD Type 1 Enzyme Assay Human 11β-HSD type 1 activity is measured by assaying NADPH production by fluorescence assay. Solid compounds are dissolved in DMSO to a concentration of 10 mM. Twenty microliters of each are then transferred to a column of a 96-well polypropylene Nunc plate where they are further diluted 50-fold followed by subsequent two-fold titration, ten times across the plate with additional DMSO using a Tecan Genesis 200 automated system. Plates are then transferred to a Tecan Freedom 200 system with an attached Tecan Temo 96-well head and an Ultra 384 plate reader. Reagents are supplied in 96-well polypropylene Nunc plates and are dispensed individually into black 96-well Molecular Devices High Efficiency assay plates (40 μL/well capacity) in the following fashion: 9 μL/well of substrate (2.22 mM NADP, 55.5 μM […], 10 mM Tris, 0.25% Prionex, 0.1% Triton X100), 3 μL/well of water to compound wells or 3 μL to control and standard wells, 6 μL/well recombinant human 11β-HSD type 1 enzyme, 2 μL/well of compound dilutions. For ultimate calculation of percent inhibition, a series of wells are added that represent assay minimum and maximum: one set containing substrate with 667 μM carbenoxolone (background), and another set containing substrate and enzyme without compound (maximum signal). Final DMSO concentration is 0.5% for all compounds, controls and standards. Plates are then placed on a shaker by the robotic arm of the Tecan for 15 seconds before being covered and stacked for a three hour incubation period at room temperature. Upon completion of this incubation, the Tecan robotic arm removes each plate individually from the stacker and places them in position for addition of 5 μL/well of a 250 μM carbenoxolone solution to stop the enzymatic reaction. Plates are then shaken once more for 15 seconds then placed into an Ultra 384 microplate reader (355EX/460EM) for detection of NADPH fluorescence.

Sequence of recombinant human 11β-HSD type 1 enzyme (P28845 whole entry): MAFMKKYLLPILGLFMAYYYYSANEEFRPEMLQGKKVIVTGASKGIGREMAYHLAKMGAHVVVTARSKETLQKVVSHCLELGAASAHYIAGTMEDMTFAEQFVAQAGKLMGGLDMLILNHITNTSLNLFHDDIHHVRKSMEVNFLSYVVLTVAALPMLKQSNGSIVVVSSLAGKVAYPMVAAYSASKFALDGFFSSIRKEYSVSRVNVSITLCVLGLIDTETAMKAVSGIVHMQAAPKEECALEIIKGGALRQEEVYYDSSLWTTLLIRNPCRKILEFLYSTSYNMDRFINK

Row | IC50 | SMILES
1 | 0.384 µM | O=C1C(Cc2ccc(-c3ccncc3)cc2Cl)CCN1C1CCCCC1 (centres unmarked)
2 | 0.565 µM | CC1CCCCC1N1CCC(Cc2c(Cl)cc(-c3ccncc3)cc2Cl)C1=O (centres unmarked)
3 | 0.378 µM | O=C1C(Cc2ccc(Cl)cc2Cl)CCN1C1CCC(O)CC1 (centres unmarked)
4 | 0.494 µM | O=C1C(Cc2ccc(-c3cccnc3)cc2Cl)CCCN1C1CCCCC1 (centres unmarked)
5 | 0.879 µM | O=C1C(Cc2c(F)cccc2Cl)CCCN1C1CCCCC1 (centres unmarked)
6 | 0.23 µM | O=C1C(Cc2c(Cl)cc(Cl)cc2Cl)CCN1C1CCC(O)CC1 (centres unmarked) [drawing 379]
7 | 0.273 µM | CC1CCCCC1N1CCC(Cc2ccc(-c3cccnc3)cc2Cl)C1=O (centres unmarked) [drawing 383]

System: cortisone to cortisol conversion (11β-HSD type 1)
Assay: Acute In Vivo Cortisone Conversion Assay
Details: mice dosed orally, subcutaneous cortisone challenge 30 mg/kg, serum cortisol by LC-MS/MS
Protocol: Acute In Vivo Cortisone Conversion Assay
In general, compounds are dosed orally into mice, the mice are challenged with a subcutaneous injection of cortisone at a set timepoint after compound injection, and the blood of each animal is collected some time later. Separated serum is then isolated and analyzed for levels of cortisone and cortisol by LC-MS/MS, followed by calculation of mean cortisol and percent inhibition of each dosing group. Specifically, male C57BL/6 mice are obtained from Harlan Sprague Dawley at average weight of 25 grams. Exact weights are taken upon arrival and the mice randomized into groups of similar weights. Compounds are prepared in 1% w-w HEC, 0.25% w-w polysorbate 80, 0.05% w-w Dow Coming antifoam #1510-US at various doses based on assumed average weight of 25 grams. Compounds are dosed orally, 200 μl per animal, followed by a subcutaneous dose, 200 μl per animal, of 30 mg/kg cortisone at 1 to 24 hours post compound dose. At 10 minutes post cortisone challenge, each animal is euthanized for 1 minute in a CO2 chamber, followed by blood collection via cardiac puncture into serum separator tubes. Once fully clotted, tubes are spun at 2500×g, 4° C. for 15 minutes, the serum transferred to wells of 96-well plates (Coming Inc, Costar #4410, cluster tubes, 1.2 ml, polypropylene), and the plates are frozen at −20° C. until analysis by LC-MS/MS. For analysis, serum samples are thawed and the proteins are precipitated by the addition of acetonitrile containing d4-cortisol internal standard. Samples are vortex mixed and centrifuged. The supernatant is removed and dried under a stream of warm nitrogen. Extracts are reconstituted in methanol/water (1:1) and injected onto the LC-MS/MS system. The levels of cortisone and cortisol are assayed by selective reaction monitoring mode following positive ACPI ionization on a triple quadrupole mass spectrophotometer. […] Examples 91, 135, 119, 15, and 99 were active in the Acute In Vivo Cortisone Conversion Assay.

Row | SMILES | activity in the Acute In Vivo Cortisone Conversion Assay
8 | O=C1C(Cc2ccc(Cl)cc2Cl)CCN1[C@H]1CC[C@H](O)CC1 (relative stereo) [Example 15, 3-(2,4-Dichloro-benzyl)-1-(trans-4-hydroxy-cyclohexyl)-pyrrolidin-2-one] | active
9 | CC1CCCCC1N1CCC(Cc2c(F)cccc2Cl)C1=O (centres unmarked) [Example 65] | inactive
10 | COc1ccc(Cl)c(CC2CCN(C3CCCCC3)C2=O)c1Cl (centres unmarked) [Example 69] | inactive
11 | Cl.O=C1C(Cc2ccc(-c3ccncc3)cc2Cl)CCN1C1CCCCC1 (centres unmarked) [Example 91] | active
12 | CC1CCCCC1N1CCC(Cc2ccc(-c3cccnc3)cc2Cl)C1=O (centres unmarked) [Example 99] | active
13 | CC1CCCCC1N1CCC(Cc2c(Cl)cc(-c3ccncc3)cc2Cl)C1=O.Cl (centres unmarked) [Example 119] | active
14 | O=C1C(Cc2c(Cl)cc(Cl)cc2Cl)CCN1C1CCC(O)CC1 (centres unmarked) [Example 135] | active
